Assay results from paper PMC10214512 (2023).

Experiments:
[1] = test system: Cy5 NRAS 5'UTR G4 (RNA, G4) UGUGGGAGGGGCGGGUCUGGGUGC; test: fluorescence quenching (Cy5); details: 100 mM KCl, 10 mM MgCl2
[2] = test system: Cy5 NRAS 5'UTR G4 (RNA, G4) UGUGGGAGGGGCGGGUCUGGGUGC; test: MST thermophoresis; details: 100 mM KCl, 10 mM MgCl2; binding only at millimolar concentrations, KD not established; label of G4 construct not stated for this assay
[3] = 20 mM HEPES pH 7.4, 25 °C, group value close to 200 nM

KD [1, 3] | Compound | also measured
137 nM | NCCOc1cc(NC(=O)c2cc(OCc3cn(CCOCCOCCOCCOCCOCCn4ccnc4)nn3)cc(C(=O)Nc3cc(OCCN)c4ccccc4n3)n2)nc2ccccc12 | –
211 nM | NCCOc1cc(NC(=O)c2cc(OCc3cn(CCOCCOCCOCCn4ccnc4)nn3)cc(C(=O)Nc3cc(OCCN)c4ccccc4n3)n2)nc2ccccc12 | –

Continued, molecule first:

Compound | KD [1, 3] | also measured
NCCOc1cc(C(=O)Nc2cc(OCCN)c3ccccc3n2)nc(C(=O)Nc2cc(OCCN)c3ccccc3n2)c1 | – | KD ([1]; 20 mM HEPES pH 7.4, 25 °C read after 30 min at 4 °C, 50 nM RNA): 26 nM
NCCOc1cc(NC(=O)c2cc(OCc3cn(CCC(=O)O)nn3)cc(C(=O)Nc3cc(OCCN)c4ccccc4n3)n2)nc2ccccc12 | 191 nM | –
[N-]=[N+]=NCCOCCOCCOCCOCCOCCn1ccnc1 | – | binding [2]: weak
